Data from patent US20060229433A1, “Modified antiviral peptides with increased activity and cell membrane affinity” (priority 2003, published 2006).
Several values for one entry are separate records, joined by “and”; a condition that tells them apart may be missing. Equal values may be shown once. Bridge positions count the residues as written; N and C are the ends. Square brackets hold non-standard residues; d marks the D form. Ends that are not written are not given here. Peptide text beside a SMILES is read from it. I, II: the chains in the order shown. Ava = NCCCCC(=O)O; βAla = NCCC(=O)O

Assays:
Format in all cases: cell-based
[1] = system: HIV-1 NL 4-3; assay: HIV-1 infection of C8166 cells (syncytia formation, p24 ELISA) with HIV-1 NL 4-3; conditions: for IC50: C8166 cells, HIV-1 subtype B NL 4-3, Table 3
Experimental: (§1) HIV-1 NL 4-3 isolate (Adachi et al., 1986; Barré-Sinoussi et al., 1983) and highly cytopathic Zairian HIV-1 NDK isolate (Ellrodt et al., 1984) was propagated in permissive CEM cells (Nara et al., 1987). Uninfected CEM and C8166 (Salahuddin et al., 1983) were maintained in RPMI 1640 (R10) with ultraglutamine (cambrex, Vervier, Belgium), penicillin (100 U/ml), streptomycin (100 μg/ml), and 10% heat-inactivated fetal calf serum (Cambrex).
(§2) Samples of 3×10^5/100 μL C8166 cells were preincubated in 96-well microtiter plates in culture medium containing various concentrations of peptide. After a 1 h treatment at 37° C., 100 μl of diluted viral solution of HIV-1 was added. The cells were exposed to the virus for 1 h at 37° C. at a multiplicity of infection of 1000 TCID50 per ml. The cells were washed three times and cultured at 3×10^5/ml of R10 with the treatment in 24-well plates incubated at 37° C. C8166 culture medium was replaced at Day-4 post-infection. The treatment was permanent before virus adsorption, during virus adsorption and after infection. Assays on C8166 cells have been performed at least twice and in duplicate. Toxicity was evaluated by daily cell count and trypan-blue exclusion assay. Infection of C8166 T-cells with HIV-1 was assessed by virus-induced cytopathic effects (syncytia formation) and by quantification of cell free p24 viral protein in the culture supernatants. Measurements of HIV-1 p24^gag concentration in the culture supernatants were achieved by ELISA (ALLIANCE® HIV-1 p24 kit, Perkin Elmer, life sciences, USA).

[2] = system: HIV-1 NL 4-3; assay: as above; design: key: ++, +, (+), (+)− and − represent decreasing numbers of syncitia formed; ++, +, (+), (+)− and − represent decreasing numbers of syncitia formed; ++, +, (+), (+)− and − represent decreasing numbers of syncitia formed; ++, +, (+), (+)− and − represent decreasing numbers of syncitia formed; ++, +, (+), (+)− and − represent decreasing numbers of syncitia formed; conditions: Table 1
Experimental: as §1, §2

[3] = system: HIV-1 NL 4-3; assay: as above; design: key: ++, +, (+), (+)− and − represent decreasing numbers of syncitia formed.; ++, +, (+), (+)− and − represent decreasing numbers of syncitia formed.; ++, +, (+), (+)− and − represent decreasing numbers of syncitia formed.; ++, +, (+), (+)− and − represent decreasing numbers of syncitia formed.; ++, +, (+), (+)− and − represent decreasing numbers of syncitia formed; conditions: Table 2
Experimental: as §1, §2

[4] = system: HIV-1 NL 4-3; assay: Infection of human peripheral blood lymphocytes (PBL) with NL 4-3 strain, p24 ELISA
Experimental: Peripheral blood lymphocytes from an HIV-1 negative donor were grown as described earlier, maintained in RPMI 1640 with ultraglutamine, supplemented with IL2 (20 μg/ml), penicillin (100 U/ml), streptomycin (100 μg/ml), and 10% heat-inactivated fetal calf serum. Cells were stimulated three days in the medium supplemented with phytohemagglutinin (20 U/ml PHA P, DIFCO, Detroit Mich.).
Samples of 10^6/100 μL PBL cells were preincubated in 96-well microtiter plates in culture medium containing various concentrations of peptides. After a 1 h treatment at 37° C., 100 μl of diluted viral solution of HIV-1 was added. The cells were exposed to the virus for 1 h at 37° C. at a multiplicity of infection of 1000 TCID50 per ml. The cells were washed three times and cultured at […] of medium with the treatment in 24-well plates incubated at 37° in culture medium with the peptides in 5% CO2. The treatment was permanent before virus adsorption, during virus adsorption and after infection. The PBL culture medium was replaced every 3-4 days during three weeks always in the presence of peptide. The cell viability was assessed by cell counts and trypan-blue exclusion assay. The viral production in the culture supernatant was quantified by p24 ELISA test, as described earlier. All the experiments have been done in blind-tests. Tests have been done in duplicate.

Compound: Cc1cn([C@H]2C[C@H](N=[N+]=[N-])[C@@H](CO)O2)c(=O)[nH]c1=O [AZT, reference compound]
- P 24 ([1]; Day 4, 1 μM, Table 1): NEG
- P 24 ([1]; Day 4, 1 μM, Table 2): NEG
- P 24 ([1]; Day 7, 1 μM, Table 1): NEG
- Day 4 syncitia formed ([2]; 1 μM): −
- Day 5 syncitia formed ([2]; 1 μM): −
- Day 6 syncitia formed ([2]; 1 μM): −
- Day 7 syncitia formed ([2]; 1 μM): −
- Day 4 syncitia formed ([3]; 1 μM): −
- Day 5 syncitia formed ([3]; 1 μM): −
- Day 6 syncitia formed ([3]; 1 μM): −
- Day 7 syncitia formed ([3]; 1 μM): −

Compound: CC(C)C[C@H](NC(=O)[C@@H]1CCCN1C(=O)[C@H](CO)NC(=O)[C@H](Cc1ccc(O)cc1)NC(=O)CNC(=O)[C@H](CCC(N)=O)NC(=O)[C@@H](N)CCCNC(=N)N)C(=O)NCCCC[C@H](NC(=O)[C@H](CC(C)C)NC(=O)[C@@H]1CCCN1C(=O)[C@H](CO)NC(=O)[C@H](Cc1ccc(O)cc1)NC(=O)CNC(=O)[C@H](CCC(N)=O)NC(=O)[C@@H](N)CCCNC(=N)N)C(=O)NCCC(=O)O [RL dimer, (RQGYSPL)2-K-βA, reference compound] (I: H-RQGYSPLK[βAla]-OH / II: H-RQGYSPL; amide I:8-II:C; N-terminus assumed)
- IC50 [1]: 20 nM
- IC50 ([4]; PBL, NL 4-3 strain, Table 4): 10 nM
- IC100 ([4]; PBL, NL 4-3 strain, Table 4): 0.1 µM

Compound: N=C(N)NCCC[C@H](N)C(=O)N[C@@H](CCC(N)=O)C(=O)NCC(=O)N[C@@H](Cc1ccc(O)cc1)C(=O)N[C@@H](CO)C(=O)NCCCC[C@H](NC(=O)[C@H](CO)NC(=O)[C@H](Cc1ccc(O)cc1)NC(=O)CNC(=O)[C@H](CCC(N)=O)NC(=O)[C@@H](N)CCCNC(=N)N)C(=O)NCCCCC(=O)O [RS dimer valeric acid, (RQGYS)2-K—NHCH2CH2CH2CH2COOH] (I: H-RQGYSK[Ava]-OH / II: H-RQGYS; amide I:6-II:C)
- IC50 [1]: 50 nM

Compound: N=C(N)NCCC[C@H](N)C(=O)N[C@@H](CCC(N)=O)C(=O)NCC(=O)N[C@@H](Cc1ccc(O)cc1)C(=O)N[C@@H](CO)C(=O)NCCCCC(=O)O [RS monomer valeric acid, RQGYS-NHCH2CH2CH2CH2COOH] (H-RQGYS[Ava]-OH)
- IC50 [1]: 200 nM

Compound: N=C(N)NCCC[C@H](N)C(=O)N[C@@H](CCC(N)=O)C(=O)NCC(=O)N[C@@H](Cc1ccc(O)cc1)C(=O)N[C@@H](CO)C(=O)NCCCC[C@H](NC(=O)[C@H](CO)NC(=O)[C@H](Cc1ccc(O)cc1)NC(=O)CNC(=O)[C@H](CCC(N)=O)NC(=O)[C@@H](N)CCCNC(=N)N)C(=O)NCCC(=O)O [RS, (RQGYS)2-K-βA-OH, reference compound] (I: H-RQGYSK[βAla]-OH / II: H-RQGYS; amide I:6-II:C; N-terminus assumed)
- IC50 [1]: 100 nM

Compound: GPGRAF [SPC3 monomer, GPGRAF, reference compound]
- IC50 [1]: > 10000 nM

Compound: RQGYSPL [RL monomer, RQGYSPL, reference compound]
- IC50 [1]: 500 nM

Compound: SPC3-(ε-aminocaproic acid) [S4]
- P 24 ([1]; Day 4, 0.5 μM, Table 1): 43 pg/mL and 28 pg/mL
- P 24 ([1]; Day 4, 2 μM, Table 1): 17 pg/mL and 14 pg/mL
- P 24 ([1]; Day 7, 0.5 μM, Table 1): 19801 pg/mL and 25000 pg/mL
- P 24 ([1]; Day 7, 1 μM, Table 1): 19801 pg/mL and 21640 pg/mL
- P 24 ([1]; Day 7, 2 μM, Table 1): 17872 pg/mL and 24806 pg/mL
- P 24 ([1]; Day 7, 5 μM, Table 1): 21120 pg/mL and 15674 pg/mL
- IC100 ([4]; on PBL): 0.5 µM
- Day 4 syncitia formed ([2]; 0.5 μM): −
- Day 5 syncitia formed ([2]; 0.5 μM): +
- Day 6 syncitia formed ([2]; 0.5 μM): +
- Day 7 syncitia formed ([2]; 0.5 μM): ++
- Day 4 syncitia formed ([2]; 1 μM): −
- Day 5 syncitia formed ([2]; 1 μM): +
- Day 6 syncitia formed ([2]; 1 μM): +
- Day 7 syncitia formed ([2]; 1 μM): ++
- Day 4 syncitia formed ([2]; 2 μM): −
- Day 5 syncitia formed ([2]; 2 μM): +
- Day 6 syncitia formed ([2]; 2 μM): +
- Day 7 syncitia formed ([2]; 2 μM): ++
- Day 4 syncitia formed ([2]; 5 μM): −
- Day 5 syncitia formed ([2]; 5 μM): +
- Day 6 syncitia formed ([2]; 5 μM): +
- Day 7 syncitia formed ([2]; 5 μM): ++

Compound: SPC3-Kpam [S7]
- P 24 ([1]; Day 4, 5 μM, Table 2): NEG
- Day 4 syncitia formed ([3]; 1 μM): (+)
- Day 5 syncitia formed ([3]; 1 μM): +
- Day 6 syncitia formed ([3]; 1 μM): ++
- Day 7 syncitia formed ([3]; 1 μM): ++
- Day 4 syncitia formed ([3]; 5 μM): −
- Day 5 syncitia formed ([3]; 5 μM): −
- Day 6 syncitia formed ([3]; 5 μM): − and +
- Day 7 syncitia formed ([3]; 5 μM): + and ++

Compound: SPC3-Penetratin [S2]
- P 24 ([1]; Day 4, 0.5 μM, Table 1): NEG
- P 24 ([1]; Day 4, 0.5 μM, Table 2): 2 pg/mL
- P 24 ([1]; Day 4, 1 μM, Table 1): NEG
- P 24 ([1]; Day 4, 1 μM, Table 2): NEG
- P 24 ([1]; Day 4, 2 μM, Table 1): NEG
- P 24 ([1]; Day 4, 5 μM, Table 1): NEG
- P 24 ([1]; Day 7, 0.5 μM, Table 2): 115 pg/mL and 91 pg/mL
- P 24 ([1]; Day 7, 1 μM, Table 1): 181 pg/mL and 245 pg/mL
- IC100 ([4]; on PBL): 0.01 µM
- Day 4 syncitia formed ([2]; 0.5 μM): −
- Day 5 syncitia formed ([2]; 0.5 μM): −
- Day 6 syncitia formed ([2]; 0.5 μM): −
- Day 7 syncitia formed ([2]; 0.5 μM): +
- Day 4 syncitia formed ([2]; 1 μM): −
- Day 5 syncitia formed ([2]; 1 μM): −
- Day 6 syncitia formed ([2]; 1 μM): −
- Day 7 syncitia formed ([2]; 1 μM): −
- Day 4 syncitia formed ([2]; 2 μM): −
- Day 5 syncitia formed ([2]; 2 μM): −
- Day 6 syncitia formed ([2]; 2 μM): −
- Day 7 syncitia formed ([2]; 2 μM): −
- Day 4 syncitia formed ([3]; 0.05 μM): (+)
- Day 5 syncitia formed ([3]; 0.05 μM): + and ++
- Day 6 syncitia formed ([3]; 0.05 μM): ++
- Day 7 syncitia formed ([3]; 0.05 μM): ++
- Day 4 syncitia formed ([3]; 0.1 μM): (+)
- Day 5 syncitia formed ([3]; 0.1 μM): +
- Day 6 syncitia formed ([3]; 0.1 μM): +
- Day 7 syncitia formed ([3]; 0.1 μM): ++
- Day 4 syncitia formed ([3]; 0.5 μM): −
- Day 5 syncitia formed ([3]; 0.5 μM): −
- Day 6 syncitia formed ([3]; 0.5 μM): −
- Day 7 syncitia formed ([3]; 0.5 μM): (+) and +
- Day 4 syncitia formed ([3]; 1 μM): −
- Day 5 syncitia formed ([3]; 1 μM): −
- Day 6 syncitia formed ([3]; 1 μM): −
- Day 7 syncitia formed ([3]; 1 μM): −
